Data from patent publication US20220256821A1, “ZEBRAFISH DELETION AND COMPOUND MUTANTS AND USES THEREOF” (The General Hospital Corporation, priority 2019, published 2022).

Key:
Format in all cases: in vivo, human
[1] = system: CD19-expressing leukemia cell line (K562-CD19); assay: BiTE therapy of engrafted leukemia cells in zebrafish; conditions: rag2null/null; Il2rga-/- zebrafish, coadministration of CD8+ T cells
Source text: (§1) To investigate if the rag2^null/null; Il2rga−/− animals can be used in the context of evaluating BiTE therapy efficiency, GFP-expressing OVCAR-5 (EPCAM+) cancer cells were first engrafted into mutant zebrafish. Following 7 days of engraftment, CD8+ T cells were co-administered with a control EPCAM antibody, a non-specific CD19 targeting BiTE (blinatumomab), or an EPCAM targeting BiTE (solitomab). […] In a similar experiment, animals engrafted with CD19-expressing leukemia cell line (K562-CD19) cells were killed off by coadministration of CD8+ T cells and blinatumomab (FIG. 4A-FIG. 4F).
(§2) Human cancer cells were grown to 90% confluence in a T75 cell culture flask, trypsinized, counted and resuspended at 2.5×10^7 cells/ml in Matrigel. Clondronate liposomes were added to the injection mix to inhibit early macrophage ingestion of engrafted cells over the first 7 days. […] Human CD8+ T cells, CMV-primed T cells and Car T cells were grown in 24 well plate at a density of 1×10^6 cells/ml, harvested, counted and resuspended at 5×10^7 cells/ml in T cell media. […] Cancer cell engraftment was assessed using epifluorescence whole animal microscopy (Olympus MVX10), with average GFP intensity measured using ImageJ. Growth was measured in relation to GFP intensity observed immediately after IP injection or by individual count of GFP+ cells over time. […]

[2] = system: OVCAR-5 (EPCAM+) cancer cells; assay: BiTE therapy of engrafted tumor in zebrafish; conditions: rag2null/null; Il2rga-/- zebrafish, co-administered with CD8+ T cells after 7 days of engraftment
Source text: as §1, §2

[3] = system: OVCAR-5 (zipCaspase3) cells; assay: Live confocal imaging of BiTE-induced apoptosis with zipCaspase 3 reporter in zebrafish; conditions: administered with T cells, live confocal microscopy
Experimental: Next, it was investigated whether the rag2^null/null; Il2rga−/− zebrafish are able to be used to directly visualize tumor cell killing at single cell resolution following BiTE therapy in vivo. To do so, OVCAR-5 ovarian cancer cells were engineered to express a zipCaspase 3 construct, where live tumor cells constitutively express mCherry, but express zipGFP only when undergoing apoptosis (FIG. 7A-FIG. 7E).
Imaging of peri-ocular transplanted cells was performed using an inverted LSM 710 confocal microscope. Engrafted zebrafish were anesthetized using […] tricaine and placed into a 12-mm glass-bottom dish for imaging. Serial z-stack imaging was carried out using a 10× objective (NA 0.45). In vivo direct visualization of Car T-cell interaction with tumor cells, cell apoptosis with zipGFP caspase 3 reporter, and visualization of therapy target specificity was carried out by serial z-stack imaging using 405 nm (emission […]), 488 nm (emission=493-586 nm) and 546 nm laser (emission=575-703 nm). Animals were imaged at 6 dpt prior to administration of immunotherapy. […] Quantification of distance between tumor cells and Car T-cells was analysed using distance between surface and spot plugin. Images were manually annotated from Imaris files (n=100 cells per timepoint analyzed from n≥3 animals) and quantified using the Fisher's Exact Test or T-test.

Substance | killing of engrafted cells [1] | overall tumor growth [2] | cell apoptosis quantified in vivo (zipGFP) [3]
blinatumomab | killed off | did not alter overall OVCAR-5 tumor growth | 
solitomab |  | undergo cell killing and suppress tumor growth | significant induction of cell apoptosis
